# Data from US9428536B2, “Immunostimulatory G, U-containing oligoribonucleotides” (Zoetis Belgium SA, priority 2002, dated 2016).
# Tested on: human PBMC
# Assay: Human PBMC IL-12 p40 secretion, ELISA
# Assay type: cell-based
# Method: Human peripheral blood mononuclear cells (PBMCs) were isolated from healthy donors, plated at 3×10^5 cells/well, stimulated in vitro with various test and control immunostimulatory agents for 16 hours, and then analyzed by enzyme-linked immunosorbent assay (ELISA) using matched antibody pairs from BD-Pharmingen for secreted cytokines IL-12 p40 and TNF-α, performed according to the manufacturer's protocol. Also included were certain negative controls, including medium alone and DOTAP (10 μg/200 μl culture well; “Liposomes”) alone. The control immunostimulatory agents included the imidazoquinolone R-848 (2 μg/ml), lipopolysaccharide (LPS; 1 μg/ml), Pam3Cys (5 μg/ml), poly IC (50 μg/ml), and CpG DNA (50 μg/ml). These are reported ligands for TLR7, TLR4, TLR2, TLR3, and TLR9, respectively. Test immunostimulatory agents included the following RNA molecules, each at 50 μg/ml, with and without DOTAP (10 μg total “with Liposomes” and “without Liposomes”, respectively): GUGUUUAC alone; GUAGGCAC alone; GUGUUUAC in combination with GUAGGCAC; GUAGGA; GAAGGCAC; CUAGGCAC; CUCGGCAC; and CCCCCCCC. These RNA oligonucleotides each contained a phosphorothioate linkage between the penultimate and 3′ terminal nucleoside.
# The experiments described in the preceding example were repeated with varied concentrations of RNA oligonucleotides in order to assess the dose-response behavior of human PBMCs to G,U-containing RNA oligonucleotides of the invention. A total of 10, 3 or 1 μg RNA was added to 10 μg DOTAP and then added to the 200 μl culture wells. After 16 hours IL-12 p40 and TNF-α ELISAs were performed as described in Example 1. […]
# RNA oligomers GUGUGUGU, GUGUGUG, GUGUGU, GUGUG, GUGU, GUG, and GU, with and without DOTAP, were added over a range of concentrations to overnight cultures of human PBMC. Culture supernatants were harvested, and human TNF-α, IL-12 p40, and IFN-α were measured by ELISA using matched antibody pairs from BD-Pharmingen according to the manufacturer's protocol. […]
smiles,measurement,setting,value
"CCOCc1nc2c(N)nc3ccccc3c2n1CC(C)(C)O [R-848, 4-amino-α,α-dimethyl-2-ethoxymethyl-1H-imidazo[4,5-c]quinoline-1-ethanol, reference compound]",IL-12 p40 response of human PBMC (in words),"Example 1, FIG. 1, 16 hours, RNA 50 μg/ml with and without DOTAP, R-848 2 μg/ml, LPS 1 μg/ml, Pam3Cys 5 μg/ml, poly IC 50 μg/ml",responsive
same,effect of DOTAP on the amount of IL-12 p40 secreted,"Example 4, FIG. 5, presence versus absence of DOTAP, 16 hour incubation",about the same immunostimultory effect
